These results are taken from PubChem BioAssay (NCI).

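Method: 48-hour compound exposure of cells in 96-well plates, five concentrations, linear interpolation of endpoints. The concentration for full growth arrest is given as TGI.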

The test system of one experiment is RXF-631 renal. The experiment in a line: NCI anticancer screen, dose series, 48 h.
In turn, `CC(C)(C)OC(=O)NC1CCCC1=O` (stereo not given) came in with a TGI greater than 100 µM.

As to `Cc1c(C(=O)/C=C/c2ccccc2[N+](=O)[O-])[n+](=O)c2ccccc2n1[O-]`, the TGI stood at 23.9 µM.

With `CCCCCCC(C)CCCCCCCCCCC(=O)O` (stereo not given), the TGI is greater than 100 µM.

With `COc1ccc2c(NCCCCCCNc3c4ccccc4nc4cc(OC)ccc34)c3ccccc3nc2c1`, the TGI was 3.97 µM.

`CC1(O)CCn2c(=O)c3cc4ccccc4cc3c(=O)n2C1O` (stereo not given) returned a TGI greater than 100 µM.

The molecule `COc1cc(CNc2nc3ccc(C(F)(F)F)cc3nc2-c2ccccc2)cc(OC)c1OC` returned a TGI greater than 100 µM.

In the case of `CC(=O)n1c(=O)c2cc3c(=O)n(-c4cccc(C#N)c4)c(=O)c3cc2c1=O`, the TGI was greater than 100 µM.

`C=C1C2Oc3ccccc3C1N(c1ccccc1)O2` (stereo not given) had a TGI of 45.6 µM.

Molecule `C=CCNC(=O)N(CCC)CCCC(NC(C)=O)C(=O)NCc1ccccc1` (stereo not given) displayed a TGI greater than 100 µM.

As to `Cc1ccccc1/C=C/C(=O)c1ccccc1`, the TGI amounted to 42.5 µM.

For `COC(=O)C1C(=O)N(CCc2c[nH]c3ccccc23)C[C@@H]2CCC(=O)C[C@H]12` (stereo not given in full), the TGI was greater than 100 µM.

In turn, `Cc1ccc(C)c(N2C(=O)C(=O)C(c3nc4ccccc4s3)C(=Nc3cccc4c(=O)[nH][nH]c(=O)c34)C2=O)c1` (stereo not given) yielded a TGI greater than 100 µM.

Turning to `Cc1nc(-c2cccnc2)sc1C(=O)/C=C/c1cccc([N+](=O)[O-])c1`, the TGI was greater than 100 µM.

The next experiment has as its system SNB-78 CNS. The experiment in a line: NCI anticancer screen, dose series, 48 h.
Take `CC(C)(C)OC(=O)NC1CCCC1=O` (stereo not given): the TGI is greater than 100 µM.

As to `Cc1c(C(=O)/C=C/c2ccccc2[N+](=O)[O-])[n+](=O)c2ccccc2n1[O-]`, the TGI stood at 70.7 µM.

In turn, `COc1cc(CNc2nc3ccc(C(F)(F)F)cc3nc2-c2ccccc2)cc(OC)c1OC` yielded a TGI greater than 100 µM.

Consider `CC(=O)n1c(=O)c2cc3c(=O)n(-c4cccc(C#N)c4)c(=O)c3cc2c1=O`, for which the TGI was greater than 100 µM.

The molecule `C=C1C(=O)C23C(O)C1CC[C@H]2C12CCCC(C)(COC(C)=O)[C@H]1[C@H](O)[C@]3(O)OC2` (stereo not given in full) registered a TGI of 2.96 µM.

`CCOC(=O)C1(Cc2ccc3ccccc3c2)CCCCC(=O)N1` (stereo not given) came in with a TGI greater than 100 µM.

In the case of `Cc1ccccc1/C=C/C(=O)c1ccccc1`, the TGI amounted to 39.2 µM.

The molecule `COC(=O)C1C(=O)N(CCc2c[nH]c3ccccc23)C[C@@H]2CCC(=O)C[C@H]12` (stereo not given in full) returned a TGI greater than 100 µM.

In turn, `CC1(C)CC(=O)C(CC2C(=O)c3ccccc3C2=O)C(=O)C1` gave a TGI greater than 100 µM.

With `Cc1c(C)c(CC(=O)N2CC2)c(C)c(C)c1CC(=O)N1CC1`, the TGI is 57.3 µM.

`Cc1cccc(C)c1N1C(=O)C(=O)C(c2nc3ccccc3s2)C(=Nc2cccc3c(=O)[nH][nH]c(=O)c23)C1=O` (stereo not given): the TGI is greater than 100 µM.

Molecule `N#CC(C#N)=c1c2nsnc2c(=C(C#N)C#N)c2nsnc12` registered a TGI of 3.28 µM.

`Cn1c(=O)nc2n(-c3ccc(Cl)c(C(F)(F)F)c3)c3ccccc3nc-2c1=O` had a TGI greater than 100 µM.

Another experiment has as its system KM20L2 colon. The experiment in a line: NCI anticancer screen, dose series, 48 h.
For the molecule `CC(C)(C)OC(=O)NC1CCCC1=O` (stereo not given), the TGI is greater than 100 µM.

Regarding `Cc1c(C(=O)/C=C/c2ccccc2[N+](=O)[O-])[n+](=O)c2ccccc2n1[O-]`, the TGI was determined as 18 µM.

In the case of `CCCCCCC(C)CCCCCCCCCCC(=O)O` (stereo not given), the TGI is greater than 100 µM.

For `COc1ccc2c(NCCCCCCNc3c4ccccc4nc4cc(OC)ccc34)c3ccccc3nc2c1`, the TGI worked out at 1.17 µM.

For the molecule `CC1(O)CCn2c(=O)c3cc4ccccc4cc3c(=O)n2C1O` (stereo not given), the TGI was greater than 100 µM.

`COc1cc(CNc2nc3ccc(C(F)(F)F)cc3nc2-c2ccccc2)cc(OC)c1OC` registered a TGI greater than 100 µM.

As to `CC(=O)n1c(=O)c2cc3c(=O)n(-c4cccc(C#N)c4)c(=O)c3cc2c1=O`, the TGI was greater than 100 µM.

The molecule `C=C1C2Oc3ccccc3C1N(c1ccccc1)O2` (stereo not given) returned a TGI greater than 100 µM.

As for `C=C1C(=O)C23C(O)C1CC[C@H]2C12CCCC(C)(COC(C)=O)[C@H]1[C@H](O)[C@]3(O)OC2` (stereo not given in full), the TGI came to 3.01 µM.

Molecule `C=CCNC(=O)N(CCC)CCCC(NC(C)=O)C(=O)NCc1ccccc1` (stereo not given) came in with a TGI greater than 100 µM.

`CCOC(=O)C1(Cc2ccc3ccccc3c2)CCCCC(=O)N1` (stereo not given) returned a TGI greater than 100 µM.

Take `Cc1ccccc1/C=C/C(=O)c1ccccc1`: the TGI was determined as 33.6 µM.

For `CC1(C)CC(=O)C(CC2C(=O)c3ccccc3C2=O)C(=O)C1`, the TGI is greater than 100 µM.

With `Cc1c(C)c(CC(=O)N2CC2)c(C)c(C)c1CC(=O)N1CC1`, the TGI was found to be 47.3 µM.

Consider `Cc1ccc(C)c(N2C(=O)C(=O)C(c3nc4ccccc4s3)C(=Nc3cccc4c(=O)[nH][nH]c(=O)c34)C2=O)c1` (stereo not given), for which the TGI was greater than 100 µM.

Take `Cc1cccc(C)c1N1C(=O)C(=O)C(c2nc3ccccc3s2)C(=Nc2cccc3c(=O)[nH][nH]c(=O)c23)C1=O` (stereo not given): the TGI is greater than 100 µM.

With `N#CC(C#N)=c1c2nsnc2c(=C(C#N)C#N)c2nsnc12`, the TGI amounted to 3.26 µM.

Turning to `Cn1c(=O)nc2n(-c3ccc(Cl)c(C(F)(F)F)c3)c3ccccc3nc-2c1=O`, the TGI was 73.9 µM.

`Cc1nc(-c2cccnc2)sc1C(=O)/C=C/c1cccc([N+](=O)[O-])c1` displayed a TGI greater than 100 µM.

Another experiment deals with MDA-N. The experiment in a line: NCI anticancer screen, dose series, 48 h.
`COc1ccc2c(NCCCCCCNc3c4ccccc4nc4cc(OC)ccc34)c3ccccc3nc2c1`: the TGI came to 1.2 µM.

In the case of `Cc1c(C)c(CC(=O)N2CC2)c(C)c(C)c1CC(=O)N1CC1`, the TGI amounted to 34.2 µM.

The next experiment relates to PC-3 prostate. The experiment in a line: NCI anticancer screen, dose series, 48 h.
In turn, `COc1ccc2c(NCCCCCCNc3c4ccccc4nc4cc(OC)ccc34)c3ccccc3nc2c1` registered a TGI of 0.543 µM.

`C=C1C(=O)C23C(O)C1CC[C@H]2C12CCCC(C)(COC(C)=O)[C@H]1[C@H](O)[C@]3(O)OC2` (stereo not given in full) returned a TGI of 3.78 µM.

`Cc1c(C)c(CC(=O)N2CC2)c(C)c(C)c1CC(=O)N1CC1`: the TGI stood at 58.2 µM.

The next experiment relates to HOP-18 NSCLC. The experiment in a line: NCI anticancer screen, dose series, 48 h.
As to `Cc1c(C(=O)/C=C/c2ccccc2[N+](=O)[O-])[n+](=O)c2ccccc2n1[O-]`, the TGI amounted to 28.7 µM.

`CCCCCCC(C)CCCCCCCCCCC(=O)O` (stereo not given) showed a TGI greater than 100 µM.

`COc1ccc2c(NCCCCCCNc3c4ccccc4nc4cc(OC)ccc34)c3ccccc3nc2c1` yielded a TGI of 10.9 µM.

The molecule `CC1(O)CCn2c(=O)c3cc4ccccc4cc3c(=O)n2C1O` (stereo not given) registered a TGI greater than 100 µM.

`CC(=O)n1c(=O)c2cc3c(=O)n(-c4cccc(C#N)c4)c(=O)c3cc2c1=O` registered a TGI greater than 100 µM.

`C=C1C(=O)C23C(O)C1CC[C@H]2C12CCCC(C)(COC(C)=O)[C@H]1[C@H](O)[C@]3(O)OC2` (stereo not given in full) gave a TGI of 2.54 µM.

`C=CCNC(=O)N(CCC)CCCC(NC(C)=O)C(=O)NCc1ccccc1` (stereo not given) registered a TGI greater than 100 µM.

Regarding `CCOC(=O)C1(Cc2ccc3ccccc3c2)CCCCC(=O)N1` (stereo not given), the TGI was greater than 100 µM.

`CC1(C)CC(=O)C(CC2C(=O)c3ccccc3C2=O)C(=O)C1`: the TGI is greater than 100 µM.

Take `Cc1c(C)c(CC(=O)N2CC2)c(C)c(C)c1CC(=O)N1CC1`: the TGI turned out to be 75.3 µM.

With `Cc1ccc(C)c(N2C(=O)C(=O)C(c3nc4ccccc4s3)C(=Nc3cccc4c(=O)[nH][nH]c(=O)c34)C2=O)c1` (stereo not given), the TGI is greater than 100 µM.

In turn, `Cc1cccc(C)c1N1C(=O)C(=O)C(c2nc3ccccc3s2)C(=Nc2cccc3c(=O)[nH][nH]c(=O)c23)C1=O` (stereo not given) had a TGI greater than 100 µM.

Consider `N#CC(C#N)=c1c2nsnc2c(=C(C#N)C#N)c2nsnc12`, for which the TGI was 5.09 µM.

In turn, `Cn1c(=O)nc2n(-c3ccc(Cl)c(C(F)(F)F)c3)c3ccccc3nc-2c1=O` came in with a TGI greater than 100 µM.

Regarding `Cc1nc(-c2cccnc2)sc1C(=O)/C=C/c1cccc([N+](=O)[O-])c1`, the TGI is greater than 100 µM.

The subject of a further experiment is NCI/ADR-RES ovarian. The experiment in a line: NCI anticancer screen, dose series, 48 h.
For `COc1ccc2c(NCCCCCCNc3c4ccccc4nc4cc(OC)ccc34)c3ccccc3nc2c1`, the TGI came out at 18.8 µM.

Molecule `Cc1c(C)c(CC(=O)N2CC2)c(C)c(C)c1CC(=O)N1CC1` showed a TGI of 74.4 µM.

The test system of a further experiment is LXFL 529 NSCLC. Kind of experiment: NCI anticancer screen, dose series, 48 h.
Molecule `CC(C)(C)OC(=O)NC1CCCC1=O` (stereo not given) showed a TGI greater than 100 µM.

The molecule `Cc1c(C(=O)/C=C/c2ccccc2[N+](=O)[O-])[n+](=O)c2ccccc2n1[O-]` registered a TGI of 16.6 µM.

In the case of `CCCCCCC(C)CCCCCCCCCCC(=O)O` (stereo not given), the TGI is greater than 100 µM.

In the case of `CC1(O)CCn2c(=O)c3cc4ccccc4cc3c(=O)n2C1O` (stereo not given), the TGI is greater than 100 µM.

Regarding `COc1cc(CNc2nc3ccc(C(F)(F)F)cc3nc2-c2ccccc2)cc(OC)c1OC`, the TGI is greater than 100 µM.

As for `CC(=O)n1c(=O)c2cc3c(=O)n(-c4cccc(C#N)c4)c(=O)c3cc2c1=O`, the TGI is greater than 100 µM.

In the case of `C=C1C2Oc3ccccc3C1N(c1ccccc1)O2` (stereo not given), the TGI was greater than 100 µM.

Regarding `C=C1C(=O)C23C(O)C1CC[C@H]2C12CCCC(C)(COC(C)=O)[C@H]1[C@H](O)[C@]3(O)OC2` (stereo not given in full), the TGI worked out at 1.69 µM.

Consider `C=CCNC(=O)N(CCC)CCCC(NC(C)=O)C(=O)NCc1ccccc1` (stereo not given), for which the TGI was greater than 100 µM.

Regarding `CCOC(=O)C1(Cc2ccc3ccccc3c2)CCCCC(=O)N1` (stereo not given), the TGI is greater than 100 µM.

`Cc1ccccc1/C=C/C(=O)c1ccccc1` returned a TGI of 38.6 µM.

`COC(=O)C1C(=O)N(CCc2c[nH]c3ccccc23)C[C@@H]2CCC(=O)C[C@H]12` (stereo not given in full) returned a TGI greater than 100 µM.

Regarding `CC1(C)CC(=O)C(CC2C(=O)c3ccccc3C2=O)C(=O)C1`, the TGI is greater than 100 µM.

As for `Cc1c(C)c(CC(=O)N2CC2)c(C)c(C)c1CC(=O)N1CC1`, the TGI came out at 37.9 µM.

`Cc1ccc(C)c(N2C(=O)C(=O)C(c3nc4ccccc4s3)C(=Nc3cccc4c(=O)[nH][nH]c(=O)c34)C2=O)c1` (stereo not given) gave a TGI greater than 100 µM.

`Cc1cccc(C)c1N1C(=O)C(=O)C(c2nc3ccccc3s2)C(=Nc2cccc3c(=O)[nH][nH]c(=O)c23)C1=O` (stereo not given) gave a TGI greater than 100 µM.

On to `N#CC(C#N)=c1c2nsnc2c(=C(C#N)C#N)c2nsnc12`, for which the TGI amounted to 2.99 µM.

`Cn1c(=O)nc2n(-c3ccc(Cl)c(C(F)(F)F)c3)c3ccccc3nc-2c1=O` had a TGI greater than 100 µM.
